Legend:
Assay type in all cases: biochemical
[1] = molecular target: T1, Aspergillus niger glucose oxidase (GOx) parent mutant B11, T30V, I94V, SEQ ID NO: 5 (Aspergillus niger, UniProt P13006, I116V/T52V); assay: Kinetic constants by ABTS assay, parent GOx B11; details: as restated in the description text
T1 construct: made in house; host or cells: Saccharomyces cerevisiae (pYES2 plasmid B11 GOx)
Text: (§1) For detection of GOx activity the ABTS assay was used. 2,2'-azino-bis(3-ethylbenzthiazoline-6-sulphonic acid (ABTS) is commonly used as a substrate with hydrogen peroxide for a peroxidase generating enzyme. Its use allows the reaction kinetics of peroxidases to be followed, to indirectly follow the reaction kinetics of a hydrogen peroxide-producing enzyme or to quantify the amount of hydrogen peroxide in a sample [vanGijlswijk, R.P.M., et al., Fluorochrome-labeled tyramides: Use in immunocytochemistry and fluorescence in situ hybridization. Journal of Histochemistry & Cytochemistry, 1997. 45(3): p. 375-382].
(§2) The kinetic constants were determined using the Specord 200 from (Analytik Jena, Germany) and the ABTS assay [Zhu, Z.W., et al. 2006, Making glucose oxidase fit for biofuel cell applications by directed protein evolution. Biosensors & Bioelectronics, 21(11): 2046-2051]. The measurements were performed in 1 ml of reaction volume and 1 cm light pathway cuvettes, using 2.5, 5, 10, 25, 50 and 100 mM glucose. The data were fitted using Origin 6 (OriginLab Corporation, Northampton).

[2] = molecular target: T2, Aspergillus niger glucose oxidase (GOx) variant M12, N2Y, K13E, T30V, I94V, K152R, SEQ ID NO: 1 (Aspergillus niger, UniProt P13006, I116V/K174R/K35E/N24Y/T52V); assay: Kinetic constants by ABTS assay, GOx mutant M12; details: as restated in the description text
T2 construct: made in house; host or cells: Saccharomyces cerevisiae (pYES2)
T2 sequence (P13006 23-605 N24Y/K35E/T52V/I116V/K174R limits assumed): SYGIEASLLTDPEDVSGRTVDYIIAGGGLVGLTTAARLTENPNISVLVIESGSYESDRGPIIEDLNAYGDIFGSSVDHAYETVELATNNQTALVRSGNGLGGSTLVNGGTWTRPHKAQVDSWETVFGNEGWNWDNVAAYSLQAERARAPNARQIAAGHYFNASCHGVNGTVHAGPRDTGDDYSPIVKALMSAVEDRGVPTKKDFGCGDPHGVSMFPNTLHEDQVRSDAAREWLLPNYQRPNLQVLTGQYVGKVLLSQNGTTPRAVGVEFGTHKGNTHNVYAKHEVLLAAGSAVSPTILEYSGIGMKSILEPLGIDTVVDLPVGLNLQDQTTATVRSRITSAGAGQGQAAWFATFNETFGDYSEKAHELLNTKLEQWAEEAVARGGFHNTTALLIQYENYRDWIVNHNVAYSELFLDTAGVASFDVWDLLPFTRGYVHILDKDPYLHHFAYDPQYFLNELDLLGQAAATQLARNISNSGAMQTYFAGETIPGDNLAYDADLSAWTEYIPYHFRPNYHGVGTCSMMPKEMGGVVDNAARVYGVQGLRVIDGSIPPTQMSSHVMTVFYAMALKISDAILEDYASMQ
Text: as §1, §2

[3] = molecular target: T3, Aspergillus niger glucose oxidase (GOx), wild type, SEQ ID NO: 3 (Aspergillus niger, UniProt P13006); assay: Kinetic constants by ABTS assay, wt GOx; details: 2.5-100 mM glucose
T3 construct: made in house; host or cells: Saccharomyces cerevisiae (pYES2 vector)
T3 sequence (P13006 23-605 limits assumed): as the sequence (P13006 23-605 N24Y/K35E/T52V/I116V/K174R limits assumed) above, with Y2N, E13K, V30T, V94I, R152K counted along it
Text: as §1, §2

T1 sequence (P13006 23-605 T52V/I116V limits assumed): as the sequence (P13006 23-605 N24Y/K35E/T52V/I116V/K174R limits assumed) above, with Y2N, E13K, R152K counted along it

OC[C@H]1OC(O)[C@H](O)[C@@H](O)[C@@H]1O (stereo partly drawn) [glucose]
kcat [1]: 80 s' | kcat [2]: 150 s⁻¹ | kcat [3]: 54.8 s'
